In ChEMBL document CHEMBL1157124, “Synthesis and anticancer evaluation of alpha-lipoic acid derivatives” (Bioorg Med Chem Lett, 2010):
Activity calls are given as the source filed them. The rule behind the calls is not given here.

How the values were obtained:
Format in all cases: functional
[1] = system: NCI-H460; assay: Cytotoxicity against human NCI-H460 cells assessed as growth inhibition at 0.1 ug/ml after 24 hrs by MTT assay; conditions: NCI-H460, 24 h, read-out: GI
[2] = Cytotoxicity against human HO8910 cells assessed as growth inhibition at 1 ug/ml after 24 hrs by MTT assay; conditions: HO-8910, 24 h, read-out: GI
[3] = system: KB; assay: Cytotoxicity against human KB cells assessed as growth inhibition at 0.1 ug/ml after 24 hrs by MTT assay; conditions: read-out: GI
[4] = system: NCI-H460; assay: Cytotoxicity against human NCI-H460 cells assessed as growth inhibition at 100 ug/ml after 24 hrs by MTT assay; conditions: NCI-H460, 24 h, read-out: GI
[5] = system: PC-3; assay: Cytotoxicity against human PC3 cells assessed as growth inhibition at 1 ug/ml after 24 hrs by MTT assay; conditions: for inhibition of growth at 1 µg/mL: PC-3, 24 h, read-out: GI
[6] = system: PC-3; assay: Cytotoxicity against human PC3 cells assessed as growth inhibition at 100 ug/ml after 24 hrs by MTT assay; conditions: PC-3, 24 h, read-out: GI
[7] = system: Bel-7402; assay: Cytotoxicity against human Bel7402 cells assessed as growth inhibition at 1 ug/ml after 24 hrs by MTT assay; conditions: Bel-7402, 24 h, read-out: GI
[8] = system: NCI-H460; assay: Cytotoxicity against human NCI-H460 cells assessed as growth inhibition at 10 ug/ml after 24 hrs by MTT assay; conditions: NCI-H460, 24 h, read-out: GI
[9] = Cytotoxicity against human HO8910 cells assessed as growth inhibition at 100 ug/ml after 24 hrs by MTT assay; conditions: HO-8910, 24 h, read-out: GI
[10] = system: PC-3; assay: Cytotoxicity against human PC3 cells assessed as growth inhibition at 10 ug/ml after 24 hrs by MTT assay; conditions: for inhibition of growth at 10 µg/mL: PC-3, 24 h, read-out: GI
[11] = system: NCI-H460; assay: Cytotoxicity against human NCI-H460 cells assessed as growth inhibition at 1 ug/ml after 24 hrs by MTT assay; conditions: NCI-H460, 24 h, read-out: GI
[12] = system: Bel-7402; assay: Cytotoxicity against human Bel7402 cells assessed as growth inhibition at 100 ug/ml after 24 hrs by MTT assay; conditions: Bel-7402, 24 h, read-out: GI
[13] = system: Bel-7402; assay: Cytotoxicity against human Bel7402 cells assessed as growth inhibition at 0.1 ug/ml after 24 hrs by MTT assay; conditions: Bel-7402, 24 h, read-out: GI
[14] = system: PC-3; assay: Cytotoxicity against human PC3 cells assessed as growth inhibition at 0.1 ug/ml after 24 hrs by MTT assay; conditions: for inhibition of growth at 0.1 µg/mL: PC-3, 24 h, read-out: GI
[15] = system: KB; assay: Cytotoxicity against human KB cells assessed as growth inhibition at 100 ug/ml after 24 hrs by MTT assay; conditions: read-out: GI
[16] = Cytotoxicity against human HO8910 cells assessed as growth inhibition at 0.1 ug/ml after 24 hrs by MTT assay; conditions: HO-8910, 24 h, read-out: GI
[17] = system: KB; assay: Cytotoxicity against human KB cells assessed as growth inhibition at 10 ug/ml after 24 hrs by MTT assay; conditions: read-out: GI
[18] = system: KB; assay: Cytotoxicity against human KB cells assessed as growth inhibition at 1 ug/ml after 24 hrs by MTT assay; conditions: read-out: GI
[19] = system: Bel-7402; assay: Cytotoxicity against human Bel7402 cells assessed as growth inhibition at 10 ug/ml after 24 hrs by MTT assay; conditions: Bel-7402, 24 h, read-out: GI
[20] = Cytotoxicity against human HO8910 cells assessed as growth inhibition at 10 ug/ml after 24 hrs by MTT assay; conditions: HO-8910, 24 h, read-out: GI

| Structure (SMILES) | inhibition of growth at 0.1 µg/mL [1] | inhibition of growth at 1 µg/mL [2] | inhibition of growth at 0.1 µg/mL [3] | inhibition of growth at 100 µg/mL [4] | growth inhibition (GI) [5] | inhibition of growth at 100 µg/mL [6] | inhibition of growth at 1 µg/mL [7] | inhibition of growth at 10 µg/mL [8] | inhibition of growth at 100 µg/mL [9] | growth inhibition (GI) [10] | inhibition of growth at 1 µg/mL [11] | inhibition of growth at 100 µg/mL [12] | inhibition of growth at 0.1 µg/mL [13] | inhibition of growth at 0.1 µg/mL [14] | inhibition of growth at 100 µg/mL [15] | inhibition of growth at 0.1 µg/mL [16] | inhibition of growth at 10 µg/mL [17] | inhibition of growth at 1 µg/mL [5] | inhibition of growth at 1 µg/mL [18] | inhibition of growth at 10 µg/mL [10] | further results |
| --- | --- | --- | --- | --- | --- | --- | --- | --- | --- | --- | --- | --- | --- | --- | --- | --- | --- | --- | --- | --- | --- |
| O=C(CCCCC1CCSS1)Nc1ccc([N+](=O)[O-])c(C(F)(F)F)c1 (stereo not given) | 18.8% | 0.96% | 4.5% | 51.6% | inactive | 90.2% | 7.46% | 12% | 47.6% | inactive | 19.1% | 23.9% | 5.04% | 5.37% | 49.5% |  |  |  |  |  |  |
| O=C(CCCC[C@H]1CCSS1)Nc1ccc([N+](=O)[O-])c(C(F)(F)F)c1 |  |  |  | 92.2% | inactive | 79.8% |  |  | 92.3% | inactive |  | 94% |  |  | 95.8% | 1.06% |  |  |  |  | growth inhibition (GI) [14]: inactive |
| O=C(CCCCC(S)CCS)Nc1ccc([N+](=O)[O-])c(C(F)(F)F)c1 (stereo not given) | 3.2% | 1.17% |  | 95.8% |  | 79.9% | 0.68% | 0.97% | 92.7% |  | 6.29% | 91.7% | 6.54% | 8.06% | 95.5% | 1.95% | 4.04% | 1.08% | 10.2% | 45.5% |  |
| O=C(CCCC[C@@H]1CCSS1)Nc1ccc([N+](=O)[O-])c(C(F)(F)F)c1 |  |  |  | 35.4% | inactive | 59% |  |  | 39.2% | inactive |  | 43.4% |  |  | 49.1% |  |  |  |  |  | growth inhibition (GI) [14]: inactive |
| O=C(O)CCCCC(CCSC(=O)c1ccccc1)SC(=O)c1ccccc1 (stereo not given) |  | 0.29% |  | 72.8% |  | 91.2% |  |  | 86.7% |  | 0.77% | 81% | 1.09% | 9.54% | 89.8% |  | 2.68% | 9.86% | 0.68% | 7.43% | inhibition of growth at 10 µg/mL [19]: 2.76% |
| O=C(CCCCC1CCSS1)Nc1cccc(Cl)c1 (stereo not given) | 6.08% |  | 2.85% | 65.2% |  | 79.5% | 1.11% | 10.1% | 68.3% |  | 8.85% | 68.2% | 0.33% | 17.1% | 76.5% |  | 7.88% | 8.44% |  | 13.8% | inhibition of growth at 10 µg/mL [19]: 4.15% |
| COc1ccc(NC(=O)CCCCC2CCSS2)cc1 (stereo not given) | 3.82% | 3.54% | 4% | 45.7% |  |  | 7.93% | 9.82% | 43.8% |  | 0.51% | 38.7% | 5.48% |  | 48.3% | 1.64% | 2.94% |  | 5.03% |  | inhibition of growth at 10 µg/mL [20]: 6.34%; inhibition of growth at 10 µg/mL [19]: 6.32% |
